The nature of the data set: Cytotoxicity activity against human HepG2 cells assessed by CellTiter-Glo luminescent cell viability assay. Format: toxicity, cell-based. Also on record: assay stage confirmatory assay, source tissue liver. The settings on record: HepG2 cells, read-out: IC50 relative.

Calls of active or inactive are those of the source. The rule behind the calls is not given here.

In ChEMBL document CHEMBL5303711, “ECBD screening data for assay EOS300108” (2023) one finds CC50 data, which are given here for 91 compounds.

Take `CN(Cc1ccccc1)C1=CC(=[N+]2CCCC2)CC(C)(C)C1`: the CC50 is 3.3 µM (active).

For the compound `c1coc(CNc2ncnc3ccccc23)c1`, the CC50 was 9.5 µM (inactive).

Turning to `CNc1nc(N2CCN(C)CC2)nc2ccccc12`, the CC50 is 5.5 µM (active).

With `O=C(Nc1ccc(I)cc1)c1ccc(CN2CCOCC2)cc1`, the CC50 is 7.7 µM (inactive).

Turning to `Cn1c(=O)oc2cc(S(=O)(=O)Nc3cccc4cccnc34)ccc21`, the CC50 is 16.7 µM (active).

Take `O=C(Cc1ccsc1)Nc1nc(-c2ccccn2)cs1`: the CC50 is 3.2 µM (active).

On to `Cc1noc(C)c1CC(=O)Nc1nc(-c2ccc(S(=O)(=O)N(C)C)cc2)cs1`, for which the CC50 is 4.3 µM (active).

For the compound `CCOCCCNC(=O)c1nnn(-c2ccc3ncccc3c2)c1C`, the CC50 was 3.1 µM (active).

Take `COc1ccc(Nc2ssc(=O)c2Cl)cc1OC`: the CC50 is 13.8 µM (active).

Take `c1ccc([C@H](CC2CCC2)NC2CCC3(CC2)OCCO3)cc1`: the CC50 is 4 µM (active).

On to `COCCn1cc(C(=O)Nc2nc3ccccc3[nH]2)c2ccccc21`, for which the CC50 was 11.7 µM (inactive).

For the compound `COc1ccc(-n2ccc(C(=O)Nc3cnccc3C(N)=O)n2)cc1`, the CC50 is 5.4 µM (active).

Take `COc1ccc(CN(Cc2cn3c(C)cccc3n2)C2CC2)c(OC)c1`: the CC50 was 9.7 µM (active).

As to `CC(C)Cn1cnc(S(=O)(=O)N2CCC[C@@H]2COc2ccc(F)cc2)c1`, the CC50 was 8.4 µM (active).

Take `Cc1nc2ccccc2nc1CSCCCS(=O)(=O)C(C)C`: the CC50 was 0.9 µM (active).

With `C[C@@H]1Oc2ccccc2N(CC(=O)Nc2nc(-c3ccccn3)cs2)C1=O`, the CC50 is 3.3 µM (active).

For the compound `O[C@H]1C[C@@H](c2cc(N3CCC(Oc4ccccc4Cl)CC3)ncn2)C1`, the CC50 is 5.6 µM (active).

For `CCOc1cccc(N2CCN(c3ncnc4c(F)cccc34)CC2)n1`, the CC50 was 8.3 µM (active).

Regarding `N#Cc1ccc(CN2CCN(C(=O)c3ccc(-n4cccn4)cc3)CC2)cc1`, the CC50 was 8.6 µM (active).

For `C#CCOC1CCN(C(=O)c2ccc(F)c(Br)c2)CC1`, the CC50 is 8.6 µM (active).

In the case of `COc1ccc(OCCCN2CCN(S(=O)(=O)c3ccc(S(N)(=O)=O)cc3)CC2)cc1`, the CC50 was 15.9 µM (inactive).

With `CC(=O)N1N=C(c2ccc(Br)cc2)C[C@H]1c1ccc(O)cc1`, the CC50 was 20.2 µM (inactive).

Turning to `O[C@@H](CNCc1cc2ccccc2nc1N1CCCCC1)CN1CCCC1`, the CC50 was 9.8 µM (active).

On to `c1ccc2c(c1)sc1ncnc(NC[C@H]3CN(C4CC4)CCO3)c12`, for which the CC50 is 11.8 µM (active).

For `CCc1ccc([N+]2=C3SCCCN3C[C@]2(O)c2ccc(OC)c(OC)c2)cc1`, the CC50 was 10.9 µM (active).

For the compound `CCN(Cc1nc2cc(OC)c(OC)cc2c(=O)[nH]1)C(=O)c1ccc2c(c1)OCO2`, the CC50 is 12.7 µM (active).

Consider `c1ccc(-c2nc3n(n2)Cc2ccccc2-3)cc1`, for which the CC50 was 2.7 µM (active).

Consider `Cc1occc1C(=O)NC1CCN(CCC(=O)c2ccccc2)CC1`, for which the CC50 was 9.5 µM (active).

`c1nc(N2CCN(Cc3ccc4c(c3)OCO4)CC2)c2ccsc2n1`: the CC50 was 5.1 µM (active).

With `Cc1ccnn1-c1ccc(C(=O)Nc2cc(N(C)C)ccn2)cc1`, the CC50 is 12.1 µM (active).

In the case of `O=C(c1c[nH]c(-c2ccccn2)c1)c1ccccc1O`, the CC50 was 12.6 µM (inactive).

On to `NC(=O)c1cc(NC(=O)CCSc2ccccc2Br)[nH]n1`, for which the CC50 was 13.6 µM (active).

For `O=C(Nc1nc(-c2ccccc2)cs1)C1CCN(S(=O)(=O)c2cccnc2)CC1`, the CC50 was 6 µM (active).

As to `CCOc1ncccc1C(=O)Nc1nc2cc(C#N)ccc2n1CC`, the CC50 is 5.9 µM (active).

Turning to `Cc1cc(C)n(-c2ccc(C(=O)Nc3ncccc3O)cc2)n1`, the CC50 was 8.8 µM (active).

Consider `COc1ccc(OC[C@@H](O)CN(C)Cc2ccc(C)o2)c(C(C)(C)C)c1`, for which the CC50 is 21.3 µM (inactive).

As for `CC(C)(C)NC(=O)NC(=O)CNc1ccccc1C(=O)Nc1ccc(F)cc1`, the CC50 is 50 µM (inactive).

For `CC(C)n1ncc2cc(NC(=O)c3ccc(=O)n(Cc4ccccc4)n3)cnc21`, the CC50 is 9.2 µM (active).

For the compound `CCc1nccn1[C@H]1CCCN(CCOc2ccccc2F)C1`, the CC50 is 9.3 µM (active).

Take `C[C@@H](c1ccccc1F)N(Cn1ncc(Cl)c(Cl)c1=O)C1CC1`: the CC50 is 11.4 µM (active).

On to `COc1ccc(C(=O)N(C)C)cc1NC(=O)c1ccc2ccccc2n1`, for which the CC50 is 8.9 µM (active).

Regarding `CC(C)[C@H](NC1CCN(C(=O)c2ccco2)CC1)c1ccccc1`, the CC50 was 10.6 µM (inactive).

Turning to `O=C1CN2C(=C1c1nc3ccccc3s1)NC(=O)c1sccc12`, the CC50 was 3.7 µM (active).

For `CCN(Cc1ccc(OC)cc1)Cc1nc2c(F)cccc2[nH]1`, the CC50 was 10.2 µM (active).

On to `Cc1cc([C@H]2CCCN(CC(=O)Nc3nccs3)C2)n[nH]1`, for which the CC50 was 6.6 µM (inactive).

Turning to `CN(C)S(=O)(=O)N1CCN(C(=O)c2cnn(-c3ccc(Cl)cc3)c2C(F)(F)F)CC1`, the CC50 was 5.2 µM (active).

`Cc1cc(NC(=O)N2CC=C(c3c[nH]c4ncccc34)CC2)no1`: the CC50 was 9.2 µM (inactive).

In the case of `Cc1ccc([C@H](CC(=O)c2ccco2)SCCO)cc1`, the CC50 was 11.4 µM (active).

Turning to `CC(C)Cn1ncc2cc(C(=O)Nc3nc4ccccc4[nH]3)cnc21`, the CC50 is 15.5 µM (inactive).

In the case of `N#Cc1ccc(NC(=O)c2cccc3ncccc23)cc1`, the CC50 is 10.8 µM (inactive).

In the case of `C[C@H](O)CN1CCC(CNCc2ccc(Cl)cc2)CC1`, the CC50 is 7.6 µM (active).

On to `CNc1ccc(Br)cc1N`, for which the CC50 is 4.1 µM (active).

For `CC(C)[C@H](NCC(=O)N1CCN(c2ccccn2)CC1)c1ccc(Cl)cc1`, the CC50 was 8 µM (active).

As to `Cc1cc(C)cc(OCCN(C)[C@@H](C)c2nc(N)nc(N(C)C)n2)c1`, the CC50 is 9 µM (active).

On to `COc1ccc(-c2csc3[nH]c(=O)cc(O)c23)cc1`, for which the CC50 is 3.7 µM (active).

In the case of `C[C@H](O)CN1CCC(CNCc2cccc(Br)c2)CC1`, the CC50 was 9.4 µM (active).

For the compound `O=C(c1cccc(S(=O)(=O)N2CCOCC2)c1)N1CCN(c2nc3ccccc3s2)CC1`, the CC50 is 5 µM (active).

For `O=C(Nc1ccc(-c2cn3ccsc3n2)cc1)c1cccc(CO)c1`, the CC50 is 6.3 µM (active).

On to `Cc1nc(-c2ccccc2)oc1C(=O)Nc1ccc(N2CCN(C)CC2)cn1`, for which the CC50 is 12.9 µM (active).

Regarding `Cc1ccc(NC(=O)NC[C@@H](C(C)C)N2CCN(C)CC2)cc1Cl`, the CC50 is 11.3 µM (active).

In the case of `CC(C)(CN)c1cccc(-c2cccc(CN)c2)c1`, the CC50 was 12.3 µM (active).

In the case of `Cc1ccccc1Oc1ccnc(CNC(=O)c2nccn2C)c1`, the CC50 is 1.1 µM (active).

As to `Cn1cc(S(=O)(=O)N2CCCC2)cc1C(=O)Nc1nc(-c2ccccn2)cs1`, the CC50 is 6.4 µM (inactive).

For the compound `CCc1cc(N2CCC(NC(=O)N3CCN(c4cccnn4)CC3)CC2)ncn1`, the CC50 was 16.3 µM (inactive).

Turning to `Nc1ccc2cc3ccc(N)cc3nc2c1`, the CC50 is 3.2 µM (active).

On to `CON(C)C(=O)CSc1nc2sc(C)c(C)c2c(=O)n1Cc1ccccn1`, for which the CC50 was 0.6 µM (active).

For the compound `CCn1cc(CC(=O)Nc2ccc(Oc3ccccc3)cn2)cn1`, the CC50 was 5.3 µM (active).

Regarding `CN(C)c1cc(CNCc2cccc(OCc3ccccn3)c2)ccn1`, the CC50 is 15.3 µM (inactive).

Take `CC1(C)CC[C@H](CO)N(CCS(=O)(=O)c2ccc(C#N)cc2)C1`: the CC50 is 11.7 µM (active).

For the compound `COc1ccc(CNc2nccn(-c3ccc4c(c3)OCO4)c2=O)cc1OC`, the CC50 was 9.1 µM (inactive).

Consider `Cc1nn(-c2ccccc2)nc1C(=O)Nc1ccc(S(=O)(=O)NCCCN2CCOCC2)cc1`, for which the CC50 is 10.3 µM (active).

`CN(C(=O)Cn1c(S(C)(=O)=O)nc2ccccc21)c1ccccc1`: the CC50 was 5.1 µM (inactive).

Take `O=C(Nc1ccnc2ccnn12)c1ccc2ccccc2n1`: the CC50 was 1.4 µM (active).

For the compound `Cc1csc(CCNc2cc(N3CCC[C@@H]3CO)ncn2)n1`, the CC50 is 2.4 µM (active).

`Cc1cc(C(=O)Nc2cc(Cl)ccc2N2CCN(C)CC2)no1`: the CC50 was 11.9 µM (active).

As to `CN(C)C(=O)CO[C@@H]1COCC[C@H]1NC(=O)c1cn(C)c2ccccc12`, the CC50 was 6.3 µM (active).

With `CCN1CCCCC1CNCc1ccc2cc(O)ccc2c1` (stereo unspecified), the CC50 was 11.5 µM (active).

Turning to `CCOc1ccc(OCCN2CCC[C@H](n3ccnc3CC)C2)cc1`, the CC50 is 8.4 µM (active).

As for `Cn1cc(-c2nc(C(=O)Nc3cccnc3-n3cncn3)cs2)cn1`, the CC50 was 2 µM (active).

For the compound `OCC1CCCN(CCNCc2ccc(Cl)c(Cl)c2)C1` (stereo unspecified), the CC50 is 5.7 µM (active).

`Cc1cc(NC(=O)c2cnn(-c3ccccc3)n2)cc(N2CCN(C)CC2)c1`: the CC50 was 6.1 µM (active).

Take `CS(=O)(=O)c1ncc(Cl)c(C(=O)Nc2ccc(Cl)cc2)n1`: the CC50 was 4.1 µM (active).

With `N#Cc1ccc(CN2CCN(C(=O)c3ccc(Cn4cccn4)cc3)CC2)cc1`, the CC50 was 3.9 µM (active).

Turning to `CCn1c(NC(=O)c2ccc(=O)n(CCOc3ccccc3)n2)nc2ccccc21`, the CC50 was 4.6 µM (active).

Regarding `CN(c1ccccc1)S(=O)(=O)c1ccc(C(=O)N2CCN(CCOc3ccccc3)CC2)cc1`, the CC50 is 9.1 µM (active).

For `O=C(Nc1nc2cc(C(F)(F)F)ccc2[nH]1)C1=COCCO1`, the CC50 is 7.1 µM (active).

For the compound `CCc1nccn1[C@H]1CCCN(CCOc2ccc(F)cc2)C1`, the CC50 was 6 µM (active).

For `Cc1c(C(=O)Nc2ncccc2O)oc2ccccc12`, the CC50 was 1.7 µM (active).

As to `Cn1nc(C(=O)Nc2ccc(Oc3ccc(F)cc3)cn2)ccc1=O`, the CC50 is 6.7 µM (active).

Regarding `CN(c1ccc(-c2csc(NC(=O)CCc3ccco3)n2)cc1)S(C)(=O)=O`, the CC50 was 6 µM (active).

`Cc1cc(N2CCC[C@H](c3c[nH]c4ncccc34)C2)n2ncnc2n1`: the CC50 was 8.5 µM (active).
